Test results from ChEMBL document CHEMBL4024706 (Eur J Med Chem, 2017).

Key:
[1] = molecular target: Ephrin type-B receptor 1 (Homo sapiens) (UniProt P54762); experiment: Inhibition of wild-type human partial length EPHB1 (P589 to T911 residues) expressed in bacterial expression system assessed as residual activity at 1 uM by Kinomescan method relative to control
[2] = molecular target: Mitogen-activated protein kinase kinase kinase 20 (Homo sapiens) (UniProt Q9NYL2); experiment: Inhibition of wild-type human partial length ZAK (M1 to L331 residues) expressed in bacterial expression system assessed as residual activity at 1 uM by Kinomescan method relative to control
[3] = molecular target: Activated CDC42 kinase 1 (Homo sapiens) (UniProt Q07912); experiment: Inhibition of wild-type human partial length TNK2 (S159 to D474 residues) expressed in bacterial expression system assessed as residual activity at 1 uM by Kinomescan method relative to control
[4] = molecular target: Phosphatidylinositol 3-kinase catalytic subunit type 3 (Homo sapiens) (UniProt Q8NEB9); experiment: Inhibition of wild-type human partial length VPS34 (S282 to H879 residues) expressed in mammalian expression system assessed as residual activity at 1 uM by Kinomescan method relative to control
[5] = tested on: Epidermal growth factor receptor (Homo sapiens), P00533 [L858R]; experiment: Inhibition of human partial length EGFR L858R mutant (R669 to V1011 residues) expressed in bacterial expression system assessed as residual activity at 1 uM by Kinomescan method relative to control
[6] = molecular target: Cyclin-dependent kinase 16 (Homo sapiens) (UniProt Q00536); experiment: Inhibition of wild-type human partial length PCTK1 (G160 to A474 residues) expressed in mammalian expression system assessed as residual activity at 1 uM by Kinomescan method relative to control
[7] = molecular target: SRSF protein kinase 2 (Homo sapiens) (UniProt P78362); experiment: Inhibition of wild-type human full length SRPK2 (M1 to S686 residues) expressed in bacterial expression system assessed as residual activity at 1 uM by Kinomescan method relative to control
[8] = molecular target: Ribosomal protein S6 kinase alpha-1 (Homo sapiens) (UniProt Q15418); experiment: Inhibition of wild-type human partial length C-terminal RSK1 kinase domain 2 (P360 to L681 residues) expressed in bacterial expression system assessed as residual activity at 1 uM by Kinomescan method relative to control
[9] = molecular target: Ephrin type-A receptor 5 (Homo sapiens) (UniProt P54756); experiment: Inhibition of wild-type human partial length EPHA5 (T627 to V930 residues) expressed in bacterial expression system assessed as residual activity at 1 uM by Kinomescan method relative to control
[10] = molecular target: Vascular endothelial growth factor receptor 2 (Homo sapiens) (UniProt P35968); experiment: Inhibition of wild-type human partial length VEGFR2 (R787 to P1253 residues) expressed in mammalian expression system assessed as residual activity at 1 uM by Kinomescan method relative to control
[11] = molecular target: Mitogen-activated protein kinase kinase kinase 19 (Homo sapiens) (UniProt Q56UN5); experiment: Inhibition of wild-type human partial length YSK4 (T1019 to H1328 residues) expressed in mammalian expression system assessed as residual activity at 1 uM by Kinomescan method relative to control
[12] = molecular target: Cyclin-dependent kinase 5 (Homo sapiens) (UniProt Q00535); experiment: Inhibition of wild-type human full length CDK5 (M1 to P292 residues) expressed in bacterial expression system assessed as residual activity at 1 uM by Kinomescan method relative to control
[13] = molecular target: Tyrosine-protein kinase Srms (Homo sapiens) (UniProt Q9H3Y6); experiment: Inhibition of wild-type human partial length SRMS (L208 to P488 residues) expressed in mammalian expression system assessed as residual activity at 1 uM by Kinomescan method relative to control
[14] = molecular target: Hepatocyte growth factor receptor (Homo sapiens) (UniProt P08581); experiment: Inhibition of wild-type human partial length MET (D1010 to S1367 residues) expressed in bacterial expression system assessed as residual activity at 1 uM by Kinomescan method relative to control
[15] = molecular target: Phosphorylase b kinase gamma catalytic chain, liver/testis isoform (Homo sapiens) (UniProt P15735); experiment: Inhibition of wild-type human partial length PHKG2 (M1 to W300 residues) expressed in bacterial expression system assessed as residual activity at 1 uM by Kinomescan method relative to control
[16] = molecular target: Hormonally up-regulated neu tumor-associated kinase (Homo sapiens) (UniProt P57058); experiment: Inhibition of wild-type human partial length HUNK (A31 to K354 residues) expressed in bacterial expression system assessed as residual activity at 1 uM by Kinomescan method relative to control
[17] = molecular target: Tyrosine-protein kinase Fyn (Homo sapiens) (UniProt P06241); experiment: Inhibition of wild-type human partial length FYN (T243 to L534 residues) expressed in bacterial expression system assessed as residual activity at 1 uM by Kinomescan method relative to control
[18] = molecular target: Serine/threonine-protein kinase pim-1 (Homo sapiens) (UniProt P11309); experiment: Inhibition of wild-type human partial length PIM1 (A15 to K313 residues) expressed in bacterial expression system assessed as residual activity at 1 uM by Kinomescan method relative to control
[19] = molecular target: Calcium/calmodulin-dependent protein kinase kinase 2 (Homo sapiens) (UniProt Q96RR4); experiment: Inhibition of wild-type human partial length CAMKK2 (D65 to V471 residues) expressed in bacterial expression system assessed as residual activity at 1 uM by Kinomescan method relative to control
[20] = molecular target: Serine/threonine-protein kinase tousled-like 1 (Homo sapiens) (UniProt Q9UKI8); experiment: Inhibition of wild-type human partial length TLK1 (K447 to A754 residues) expressed in bacterial expression system assessed as residual activity at 1 uM by Kinomescan method relative to control
[21] = molecular target: Serine/threonine-protein kinase RIO2 (Homo sapiens) (UniProt Q9BVS4); experiment: Inhibition of wild-type human partial length RIOK2 (M1 to D313 residues) expressed in mammalian expression system assessed as residual activity at 1 uM by Kinomescan method relative to control
[22] = tested on: Tyrosine-protein kinase ABL1 (Homo sapiens), P00519 [Y253F]; experiment: Inhibition of human phosphorylated ABL1 Y253F mutant (S229 to K512 residues) expressed in mammalian expression system assessed as residual activity at 1 uM by Kinomescan method relative to control
[23] = tested on: Pfeiffer; experiment: Induction of apoptosis in human Pfeiffer cells assessed as induction of PARP cleavage after 48 hrs by immunoblot; format: functional, cell-based
[24] = molecular target: Cyclin-dependent kinase 18 (Homo sapiens) (UniProt Q07002); experiment: Inhibition of wild-type human full length PCTK3 (M3 to F474 residues) expressed in bacterial expression system assessed as residual activity at 1 uM by Kinomescan method relative to control
[25] = molecular target: Serine/threonine-protein kinase ICK (Homo sapiens) (UniProt Q9UPZ9); experiment: Inhibition of wild-type human partial length ICK (M1 to P314 residues) expressed in mammalian expression system assessed as residual activity at 1 uM by Kinomescan method relative to control

C=CC(=O)Nc1cc(Nc2cc(-c3cccc(NC(=O)c4ccc(C(C)(C)C)cc4)c3C)cn(C)c2=O)ccc1C(=O)N1CCOCC1
Activity [1]: 100%
Activity [2]: 94%
Activity [3]: 95%
Activity [4]: 90%
Activity [5]: 100%
Activity [6]: 99%
Activity [7]: 94%
Activity [8]: 100%
Activity [9]: 92%
Activity [10]: 97%
Activity [11]: 100%
Activity [12]: 90%
Activity [13]: 100%
Activity [14]: 96%
Activity [15]: 100%
Activity [16]: 77%
Activity [17]: 73%
Activity [18]: 100%
Activity [19]: 100%
Activity [20]: 99%
Activity [21]: 100%
Activity [22]: 97%
Activity [23]: Dose-dependent effect
Activity [24]: 98%
Activity [25]: 100%
